The record followed here is patent US20060247320A1, “Compounds for inhibiting KSP kinesin activity” (priority 2005, published 2006).

pIC50: −log10 of the molar value.

System in the first series: not given
Test: not given
Details: not given
On to `CCOC(=O)c1nc2cc3c(nc2s1)CCC(C(C)(C)C)C3` (racemic), for which the melting point is 84 to 86 °C.

For a further series, the target named is T1, KSP motor domain (Homo sapiens, UniProt P52732).
T1 sequence (P52732 18-359 limits assumed): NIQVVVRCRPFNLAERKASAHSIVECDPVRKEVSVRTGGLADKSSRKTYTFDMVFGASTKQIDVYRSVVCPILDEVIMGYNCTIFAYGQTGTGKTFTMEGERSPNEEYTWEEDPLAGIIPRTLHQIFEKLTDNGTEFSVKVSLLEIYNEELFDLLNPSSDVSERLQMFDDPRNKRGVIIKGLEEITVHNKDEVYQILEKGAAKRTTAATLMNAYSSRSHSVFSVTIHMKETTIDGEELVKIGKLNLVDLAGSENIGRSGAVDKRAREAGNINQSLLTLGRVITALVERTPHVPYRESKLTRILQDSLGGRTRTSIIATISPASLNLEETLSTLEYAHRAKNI
As to the kind of experiment: biochemical. Particulars: KSP inhibitory activity, end-point assay; class symbols (Table 1); read-out: IC50.
As to `Cc1cc(C(=O)Nc2ccc([C@@H](CN)NC(=O)c3cc4cc5c(nc4s3)CC[C@@H](C(C)(C)C)C5)cc2)no1` [Example 274], the negative logarithm of the IC50 (pIC50) is > 7.00.
On to `CN1CCN(C(=O)Nc2cccc([C@@H](CN)NC(=O)c3cc4cc5c(nc4s3)CC[C@@H](C(C)(C)C)C5)c2)CC1` [Example 275, 6(R)-tert-butyl-5,6,7,8-tetrahydro-thieno[2,3-b]quinoline-2-carboxylic acid (2-amino-1(S)-{3-[(4-methyl-piperazine-1-carbonyl)-amino]-phenyl}-ethyl)-amide], for which the negative logarithm of the IC50 (pIC50) is > 7.00.
The same measure, in the same setting: under `C[C@H]1CNCCN1C(=O)Nc1cccc([C@@H](CN)NC(=O)c2cc3cc4c(nc3s2)CC[C@@H](C(C)(C)C)C4)c1` [Example 276] stands > 7.00.
Regarding `C[C@@H]1CNCCN1C(=O)Nc1cccc([C@@H](CN)NC(=O)c2cc3cc4c(nc3s2)CC[C@@H](C(C)(C)C)C4)c1` [Example 277], the pIC50 was > 7.00.
Take `C[C@@H]1CN[C@@H](C)CN1C(=O)Nc1cccc([C@@H](CN)NC(=O)c2cc3cc4c(nc3s2)CC[C@@H](C(C)(C)C)C4)c1` [Example 278]: the pIC50 is 6.00 to 7.00.
Regarding `C[C@@H]1CN(C(=O)Nc2cccc([C@@H](CN)NC(=O)c3cc4cc5c(nc4s3)CC[C@@H](C(C)(C)C)C5)c2)C[C@H](C)N1` [Example 279], the pIC50 was > 7.00.
The same measure, in the same setting: under `C[C@H]1CN(C(=O)Nc2cccc([C@@H](CN)NC(=O)c3cc4cc5c(nc4s3)CC[C@@H](C(C)(C)C)C5)c2)CCN1` [Example 280] stands 6.00 to 7.00.
Same read-out and setting: under `CC(C)(C)[C@@H]1CCc2nc3sc(C(=O)N[C@H](CN)c4cccc(NCc5ccncc5)c4)cc3cc2C1` [Example 281, 6(R)-tert-Butyl-5,6,7,8,-tetrahydro-thieno[2,3-b]quinoline-2-carboxylic acid (2(S)-amino-1-{3-[(pyridin-4-ylmethyl)-amino]-phenyl}-ethyl)-amide] stands > 7.00; under `CC(C)(C)[C@@H]1CCc2nc3sc(C(=O)N[C@H](CN)c4cccc(NCc5cccnc5)c4)cc3cc2C1` [Example 282], > 7.00.
As for `CC(C)(C)[C@@H]1CCc2nc3sc(C(=O)N[C@H](CN)c4cccc(NCc5ccccc5)c4)cc3cc2C1` [Example 283], the pIC50 is > 7.00.
On to `CC(C)(C)C1CCc2nc3sc(C(=O)N[C@H](CN)c4ccsc4)cc3cc2C1` (stereo partly drawn) [Example 284, 6-tert-butyl-5,6,7,8-tetrahydro-thieno[2,3-b]quinoline-2-carboxylic acid (2-amino-1(S)-thiophen-3-yl-ethyl)-amide], for which the pIC50 is > 7.00.

The series is the same for the next values; noted with them: exact IC50 values, end-point assay (Table 2); read-out: IC50.
In the case of `C[C@@H]1CNCCN1C(=O)Nc1cccc([C@@H](CN)NC(=O)c2cc3cc4c(nc3s2)CC[C@@H](C(C)(C)C)C4)c1` [Example 277], the pIC50 was 8.00.
Consider `CC(C)(C)C1CCc2nc3sc(C(=O)N[C@H](CN)c4ccsc4)cc3cc2C1` (stereo partly drawn) [Example 284, 6-tert-butyl-5,6,7,8-tetrahydro-thieno[2,3-b]quinoline-2-carboxylic acid (2-amino-1(S)-thiophen-3-yl-ethyl)-amide], for which the pIC50 was 8.10.

Usually melting point stands for the temperature, or range, at which the solid turns liquid. By pIC50 is commonly meant the IC50 on a negative log10 scale, so that one unit is a factor of ten.
